Drawing on ChEMBL document CHEMBL1138961, “Highly selective and potent agonists of sphingosine-1-phosphate 1 (S1P1) receptor” (Bioorg Med Chem Lett, 2006), this text covers Selectivity ratio, EC50 and inhibition for 39 molecules.

Each structure is given as a SMILES string.

The EC50 is the concentration needed to bring the measured effect to its halfway point. Usually inhibition stands for the percentage by which the read-out fell short of the control.

Assay [1] is filed under the species Homo sapiens. Briefly: Selectivity for S1P1 receptor over S1P4 receptor.
Assay [2] has as its target Sphingosine 1-phosphate receptor 1 (Homo sapiens, UniProt P21453). Briefly: Agonist activity at S1P1 receptor assessed as induction of [35S]GTP-gamma-S binding. It counts as functional. Background: Binding of GTPγS marks nucleotide exchange on a G protein.
The species entered for assay [3] is Homo sapiens. Nature of the assay: Selectivity for S1P1 receptor over S1P2 receptor.
The species named for assay [4] is Homo sapiens. Briefly: Selectivity for S1P1 receptor over S1P5 receptor.
The target in assay [5] is Sphingosine 1-phosphate receptor 5 (Homo sapiens, UniProt Q9H228). Nature of the assay: Agonist activity at S1P5 receptor assessed as induction of [35S]GTP-gamma-S binding. It counts as functional.
Sequence of Sphingosine 1-phosphate receptor 5 (Q9H228 whole entry): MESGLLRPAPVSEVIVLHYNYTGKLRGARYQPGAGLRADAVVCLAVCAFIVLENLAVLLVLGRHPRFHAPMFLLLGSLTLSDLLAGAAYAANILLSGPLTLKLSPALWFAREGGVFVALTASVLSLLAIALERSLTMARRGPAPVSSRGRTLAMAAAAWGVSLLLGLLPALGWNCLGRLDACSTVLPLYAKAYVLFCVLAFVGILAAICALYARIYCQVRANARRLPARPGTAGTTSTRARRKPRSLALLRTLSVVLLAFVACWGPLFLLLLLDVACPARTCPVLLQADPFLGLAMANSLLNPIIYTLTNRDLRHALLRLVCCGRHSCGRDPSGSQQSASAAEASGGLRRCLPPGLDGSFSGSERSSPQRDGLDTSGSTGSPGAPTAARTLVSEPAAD
Assay [6] concerns the target T1, Sphingosine 1-phosphate receptor 3 (Homo sapiens, UniProt Q99500). Nature of the assay: Agonist activity at S1P3 receptor assessed as induction of [35S]GTP-gamma-S binding. The class given is functional.
For assay [7], the target named is T1, Sphingosine 1-phosphate receptor 3. Briefly: Inhibition of S1P3 receptor at 10 uM.

T1 sequence (Q99500 whole entry): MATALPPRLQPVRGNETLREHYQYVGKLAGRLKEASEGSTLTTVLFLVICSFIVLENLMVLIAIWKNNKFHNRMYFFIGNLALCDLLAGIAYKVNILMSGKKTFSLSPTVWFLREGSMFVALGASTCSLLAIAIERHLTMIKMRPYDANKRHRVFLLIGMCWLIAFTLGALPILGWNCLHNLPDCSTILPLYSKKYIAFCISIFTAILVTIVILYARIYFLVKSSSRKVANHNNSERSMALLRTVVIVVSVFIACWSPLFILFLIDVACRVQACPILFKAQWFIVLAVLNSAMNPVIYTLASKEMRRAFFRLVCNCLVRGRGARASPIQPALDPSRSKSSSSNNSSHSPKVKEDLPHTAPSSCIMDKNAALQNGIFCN
Sequence of Sphingosine 1-phosphate receptor 1 (P21453 whole entry): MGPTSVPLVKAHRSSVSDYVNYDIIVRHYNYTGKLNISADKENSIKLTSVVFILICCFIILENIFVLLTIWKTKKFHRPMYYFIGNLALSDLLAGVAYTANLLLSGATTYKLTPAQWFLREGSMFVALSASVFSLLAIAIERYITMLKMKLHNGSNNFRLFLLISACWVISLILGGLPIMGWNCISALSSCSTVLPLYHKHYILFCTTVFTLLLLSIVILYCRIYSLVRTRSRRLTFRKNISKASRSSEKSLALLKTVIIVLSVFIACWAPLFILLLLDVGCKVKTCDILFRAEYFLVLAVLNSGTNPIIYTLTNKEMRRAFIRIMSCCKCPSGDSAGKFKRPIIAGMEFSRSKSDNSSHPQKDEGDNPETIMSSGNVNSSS

`Cc1cc(CCC(=O)O)ccc1-c1nnc(-c2ccc(OC(CF)CF)c(C#N)c2)s1`: the Selectivity ratio in assay [1] is > 1000; in assay [3], > 1000; in assay [4] it was 390. For the same molecule, the EC50 in assay [2] stood at 0.23 nM.
Regarding `COc1ccc(-c2nnc(-c3ccc(CCC(=O)O)cc3C)s2)cc1C#N`, the Selectivity ratio is > 1000 in assay [1], > 1000 in assay [3] and > 100 in assay [4]. Also, in assay [2], the EC50 worked out at 97 nM.
Take `Cc1cc(CCC(=O)O)ccc1-c1nnc(-c2ccc(OC(C)C)c(C#N)c2)o1`: the EC50 in assay [5] was 460 nM; in assay [6] it was > 10 µM; in assay [2], 1.1 nM. Also, the Selectivity ratio in assay [1] and in assay [3] was > 1000 each time.
Consider `Cc1cc(CCC(=O)O)ccc1-c1noc(-c2ccc(OC(C)C)c(C#N)c2)n1`, for which the EC50 in assay [5] amounted to 13 nM; in assay [6], 0.11 µM; in assay [2], 0.1 nM. For the same molecule, the Selectivity ratio in assay [1] and in assay [3] was > 1000 each time.
As for `Cc1cc(CCC(=O)O)ccc1-c1nnc(-c2ccc(OC3CCC3)c(C#N)c2)s1`, the Selectivity ratio in assay [1] is > 1000; in assay [3], > 1000; in assay [4], 170. Further, in assay [2], the EC50 amounted to 0.79 nM.
As to `Cc1cc(CCC(=O)O)ccc1-n1nnc(-c2ccc(OC(C)C)c(C#N)c2)n1`, the half-maximal effective concentration (EC50) was 150 nM in assay [5], > 10 µM in assay [6] and 0.98 nM in assay [2]. Moreover, the Selectivity ratio in assay [1] and in assay [3] was > 1000 each time.
With `Cc1cc(CCC(=O)O)ccc1-c1nnc(-c2ccc(OCCF)c(C#N)c2)s1`, the Selectivity ratio in assay [1] was > 1000; in assay [3], > 1000; in assay [4], > 100. Moreover, the EC50 in assay [2] was found to be 9.5 nM.
`Cc1cc(CCC(=O)O)ccc1-c1nnc(-c2ccc(OCC(C)C)c(C#N)c2)s1`: the Selectivity ratio in assay [1] is > 1000; in assay [3], > 1000; in assay [4] it was 200. Moreover, the EC50 in assay [2] was 2.8 nM.
Consider `Cc1cc(CCC(=O)O)ccc1-c1cnc(-c2ccc(OC(C)C)c(C#N)c2)s1`, for which the EC50 is 200 nM in assay [5], > 10 µM in assay [6] and 14 nM in assay [2]. Further, the Selectivity ratio in assay [1] and in assay [3] was > 1000 each time.
With `Cc1cc(CCC(=O)O)ccc1-c1nnc(-c2ccc(OC(C(F)(F)F)C(F)(F)F)c(C#N)c2)s1`, the figures for the Selectivity ratio in assay [1], in assay [3] and in assay [4] were > 1000, > 1000 and 2, respectively. Besides, the EC50 in assay [2] turned out to be 38 nM.
For `Cc1cc(CCC(=O)O)ccc1-c1nnc(-c2ccc(F)c(C#N)c2)s1`, the Selectivity ratio in assay [1] was > 1000; in assay [3], > 1000; in assay [4], 18. The EC50 in assay [2] turned out to be 570 nM.
For `Cc1cc(CCC(=O)O)ccc1-c1nnc(-c2cccc(C#N)c2)s1`, the Selectivity ratio in assay [1] and in assay [3] was > 1000 in each case. Also, the EC50 in assay [2] was > 1000 nM.
With `Cc1cc(CCC(=O)O)ccc1-c1nc(C)c(-c2ccc(OC(C)C)c(C#N)c2)s1`, the EC50 in assay [5] was > 10000 nM; in assay [6] it was > 10 µM; in assay [2], > 3600 nM. The Selectivity ratio in assay [1] and in assay [3] was > 1000 in each case.
Regarding `Cc1cc(CCC(=O)O)ccc1-c1nc(-c2ccc(OC(C)C)c(C#N)c2)n[nH]1`, the Selectivity ratio in assay [1] and in assay [3] was > 1000 in each case.
Regarding `CCOc1ccc(-c2nnc(-c3ccc(CCC(=O)O)cc3C)s2)cc1C#N`, the values for the Selectivity ratio in assay [1], in assay [3] and in assay [4] were > 1000, > 1000 and 480, respectively. Moreover, the EC50 in assay [2] is 2.1 nM.
On to `Cc1cc(CCC(=O)O)ccc1-c1ccc(-c2ccc(OC(C)C)c(C#N)c2)o1`, for which the EC50 was > 10000 nM in assay [5], > 10 µM in assay [6] and > 10000 nM in assay [2]. Also, the Selectivity ratio in assay [1] and in assay [3] was > 1000 throughout.
Turning to `Cc1cc(CCC(=O)O)ccc1-c1nnc(-c2ccc(OC(C)C)c(C#N)c2)n1C`, the EC50 was > 10000 nM in assay [5], > 10 µM in assay [6] and > 10000 nM in assay [2]. For the same molecule, the Selectivity ratio in assay [1] and in assay [3] was > 1000 each time.
Consider `Cc1cc(CCC(=O)O)ccc1-c1nnc(-c2ccc(OC(C)C)c(C#N)c2)[nH]1`, for which the half-maximal effective concentration (EC50) in assay [5] was > 10000 nM; in assay [6], > 10 µM; in assay [2], 380 nM.
Take `Cc1cc(CCC(=O)O)ccc1-c1ncc(-c2ccc(OC(C)C)c(C#N)c2)o1`: the EC50 was > 10000 nM in assay [5], > 10 µM in assay [6] and 5.1 nM in assay [2]. In addition, the Selectivity ratio in assay [1] and in assay [3] was > 1000 in each case.
`Cc1cc(CCC(=O)O)ccc1-c1csc(-c2ccc(OC(C)C)c(C#N)c2)c1`: the EC50 was 3200 nM in assay [5], > 10 µM in assay [6] and 1200 nM in assay [2]. Moreover, the Selectivity ratio in assay [1] and in assay [3] was > 1000 in each case.
As to `Cc1cc(CCC(=O)O)ccc1-c1ccc(-c2ccc(OC(C)C)c(C#N)c2)n1C`, the figures for the EC50 in assay [5], in assay [6] and in assay [2] were > 10000 nM, > 10 µM and > 10000 nM, respectively. For the same molecule, the Selectivity ratio in assay [1] and in assay [3] was > 1000 throughout.
For the molecule `Cc1cc(CCC(=O)O)ccc1-c1nnc(-c2ccc(OCC3CC3)c(C#N)c2)s1`, the Selectivity ratio in assay [1] is > 1000; in assay [3] it was > 1000; in assay [4], 230. In assay [2], the EC50 came out at 0.61 nM.
`Cc1cc(CCC(=O)O)ccc1-c1nnc(-c2cnc(OC(C)C)c(Cl)c2)s1`: the EC50 in assay [5] was 1300 nM; in assay [2], 2.1 nM. Further, the Selectivity ratio in assay [1] and in assay [3] was > 1000 in each case. This molecule also yielded an inhibition in assay [7] of 36%.
Turning to `Cc1cc(CCC(=O)O)ccc1-c1nnn(-c2ccc(OC(C)C)c(C#N)c2)n1`, the EC50 is 43 nM in assay [5], > 10 µM in assay [6] and 1.6 nM in assay [2]. Moreover, the Selectivity ratio in assay [1] and in assay [3] was > 1000 in each case.
As to `Cc1cc(CCC(=O)O)ccc1-c1cc(-c2ccc(OC(C)C)c(C#N)c2)cs1`, the EC50 in assay [5] was 3200 nM; in assay [6] it was > 10 µM; in assay [2], 290 nM. The Selectivity ratio in assay [1] and in assay [3] was > 1000 in each case.
With `Cc1cc(CCC(=O)O)ccc1-c1nnc(-c2ccc(OCCC(F)(F)F)c(C#N)c2)s1`, the Selectivity ratio was > 1000 in assay [1], > 1000 in assay [3] and 30 in assay [4]. For the same molecule, in assay [2], the EC50 was found to be 7.7 nM.
Consider `Cc1cc(CCC(=O)O)ccc1-c1noc(-c2cnc(OC(C)C)c(Cl)c2)n1`, for which the EC50 was determined as 950 nM in assay [5], 0.95 µM in assay [6] and 0.73 nM in assay [2]. Also, the Selectivity ratio in assay [1] and in assay [3] was > 1000 throughout.
As for `CC(=O)Oc1ccc(-c2nnc(-c3ccc(CCC(=O)O)cc3C)s2)cc1C#N`, the Selectivity ratio in assay [1] was > 1000; in assay [3], > 1000; in assay [4], 110. The EC50 in assay [2] amounted to 94 nM.
As to `Cc1cc(CCC(=O)O)ccc1-c1nnc(-c2ccc(OCC(F)F)c(C#N)c2)s1`, the Selectivity ratio is > 1000 in assay [1], > 1000 in assay [3] and 230 in assay [4]. Further, the EC50 in assay [2] worked out at 1.1 nM.
For the molecule `Cc1cc(CCC(=O)O)ccc1-c1nnc(-c2ccc(CC(C)C)c(C#N)c2)s1`, the Selectivity ratio was > 1000 in assay [1], > 1000 in assay [3] and 320 in assay [4]. The EC50 in assay [2] came out at 0.16 nM.
Take `Cc1cc(CCC(=O)O)ccc1-c1ccc(-c2ccc(OC(C)C)c(C#N)c2)s1`: the EC50 is 220 nM in assay [5], > 10 µM in assay [6] and 0.93 nM in assay [2]. Further, the Selectivity ratio in assay [1] and in assay [3] was > 1000 each time.
For `CCCOc1ccc(-c2nnc(-c3ccc(CCC(=O)O)cc3C)s2)cc1C#N`, the Selectivity ratio in assay [1] is > 1000; in assay [3] it was > 1000; in assay [4] it was 110. Besides, the concentration giving a half-maximal response (EC50) in assay [2] came to 3.4 nM.
For `CCC(C)Oc1ccc(-c2nnc(-c3ccc(CCC(=O)O)cc3C)s2)cc1C#N` (stereo not drawn), the Selectivity ratio in assay [1] is > 1000; in assay [3], > 1000; in assay [4], 120. Also, the EC50 in assay [2] was 0.28 nM.
With `Cc1cc(CCC(=O)O)ccc1-c1nnc(-c2ccc(OCC#N)c(C#N)c2)s1`, the Selectivity ratio in assay [1] is > 1000; in assay [3], > 1000; in assay [4], 220. Also, in assay [2], the EC50 was determined as 45 nM.
`Cc1cc(CCC(=O)O)ccc1-c1nnc(-c2ccc(-c3cccs3)c(C#N)c2)s1`: the results for the Selectivity ratio in assay [1], in assay [3] and in assay [4] were > 1000, > 1000 and 110, respectively. In assay [2], the EC50 was 1.9 nM.
Regarding `Cc1cc(CCC(=O)O)ccc1-c1nnc(-c2ccc(OC(C)C)c(C#N)c2)s1`, the Selectivity ratio is > 1000 in assay [1], > 1000 in assay [3] and 210 in assay [4]. The EC50 in assay [2] was determined as 0.2 nM.
Regarding `Cc1cc(CCC(=O)O)ccc1-c1noc(-c2ccc(OC(C)C)c(Cl)c2)n1`, the EC50 in assay [5] was 73 nM; in assay [6], 0.94 µM; in assay [2], 0.15 nM. The Selectivity ratio in assay [1] and in assay [3] was > 1000 throughout.
Consider `Cc1cc(CCC(=O)O)ccc1-c1nnc(-c2ccc(OCC(=O)O)c(C#N)c2)s1`, for which the Selectivity ratio is > 1000 in assay [1], > 1000 in assay [3] and 28 in assay [4]. Further, in assay [2], the EC50 is 360 nM.
In the case of `Cc1cc(CCC(=O)O)ccc1-c1nnc(-c2ccc(OCC(F)(F)F)c(C#N)c2)s1`, the Selectivity ratio in assay [1] is > 1000; in assay [3], > 1000; in assay [4] it was 400. Further, the EC50 in assay [2] came to 0.6 nM.
